Data: patent US20230152314A1, “LIPOCALIN-2 ASSAY FOR INTESTINAL ADAPTATION” (THE JOHNS HOPKINS UNIVERSITY, priority 2020, published 2023)
“Also recorded” adds a separate entry of the source.

How the values were obtained:
WT SBR mice = experiment: I3C (AHR agonist) supplementation in SBR mice: weight gain; type: in vivo, mouse; settings: WT SBR mice vs DMSO-treated control, postoperative days 3-7, p=0.04 at day 7
Excerpt: In one experiment, AHR agonists are studied in our SBR model. The purpose of this experiment is to study AHR activation via a dietary supplement, which has tremendous potential as a translational approach. Under our ACUC-approved protocol, we will perform a 75% SBR on the same four groups [n=12 mice in each group] of C57Bl/6J mice: WT, LCN2-/-, AHR-/- and AHR-/-LCN2-/-. Sham-operated WT, LCN2-/-, AHR-/- and AHR-/-LCN2-/- C57Bl/6J mice [n=12 mice in each group] will serve as controls. Mice will be randomized to receive either the AHR agonist, indole-3-carbinol […]) (Sigma, 17256, St Louis, Mo.) at a dose of 15-20 mg/kg, dissolved in DMSO, or DMSO alone mixed into the liquid diet. The rodent liquid diet containing […] will be maintained for the duration of the postoperative period. Control mice will receive DMSO only. Mice will be weighed daily. One week later, the mice will be anesthetized for tissue collection and analyses performed.

[1] = tested on: WT SBR mice (75% SBR model of short bowel syndrome); experiment: Rescue IL-22 therapy for SBR WT mice: body weight and villus length; type: in vivo, mouse
Method: Creation of a clinically relevant model of short bowel syndrome in the mouse. In our laboratory, we established the model previously described by Helmrath et al.^18 Briefly, the hair on the abdomen of the mouse was removed by depilatory creams, and the abdomen was scrubbed with three rounds of betadine, prior to making an incision. Through a 1.5 cm midline laparotomy, the small bowel was examined. The 75% SBR was performed by transecting 3 cm distal to the ligament of Treitz and 6 cm proximal to the cecum. The intervening proximal small bowel (approximately 18 cms) was removed. Intestinal continuity was restored with a primary end-to-end jejunoileal anastomosis using 8-0 Nylon suture. The sham operation (SHA) was performed by transecting the small bowel 6 cm proximal to the cecum and immediately creating a primary end-to-end ileoileal anastomosis. Subcutaneous closure was performed with a running absorbable 4-0 Vicryl suture. Cutaneous closure was completed by interrupted 4-0 silk sutures. All animals received 1 mL of saline subcutaneously before and immediately after procedure.
After surgery, mice were offered free access to water for the first 24 hours. Fresh rodent liquid diet was provided and body weight was measured daily. Bromodeoxyuridine (BrdU) (Invitrogen, 00-0103) was administered through intraperitoneal injection (ip) 24 hours before euthanasia. Intestinal permeability was evaluated with FITC-Dextran intestinal permeability assay as described below. Serum, intestinal issue, liver, and cecal content were collected after euthanasia.
Morphometric Analysis. The jejunum and ileum were fixed in 10% neutral buffered formalin for 24 hours. […] Villus length in jejunum and ileum was measured under light microscopy (EVOS FL Auto Imaging System). At least 30 well-oriented intact villi were counted per mouse.
Rescue IL-22 Therapy for SBR WT Mice. […] The relative abundance of Proteobacteria, Bacteroidetes, Firmicutes, Lactobacillus and Enterobacteriaceae of fecal microbiome and Reg3b and Reg3g genes in the intestine were assessed by q-PCR.

[2] = tested on: Proteobacteria, Bacteroidetes, Firmicutes of fecal microbiome; experiment: Rescue IL-22 therapy: relative abundance of fecal microbiome groups by q-PCR; type: in vivo, mouse; settings: WT SBR mice, POD 7, q-PCR
Method: (§1) Rescue IL-22 Therapy for SBR WT Mice. Following a 75% SBR, WT mice were treated daily for six days via intraperitoneal injections with either 100 μL PBS as control or 100 μL PBS containing 4 μg rmIL-22 (PeproTECH, 210-22) as treatment. At post-operative day (POD) 7, intestinal tissue and cecal contents were collected after euthanasia. The relative abundance of Proteobacteria, Bacteroidetes, Firmicutes, Lactobacillus and Enterobacteriaceae of fecal microbiome and Reg3b and Reg3g genes in the intestine were assessed by q-PCR.
(§2) Quantitative real-time PCR. Gene quantification was carried out with iTap Universal SYBR Green Supermix (Bio-rad, 172-5124, Hercules, Calif., USA) on a CFX96 Touch Real-time PCR system (Bio-rad) according to the manufacturer's instructions and calculated with 2^−ΔΔCT method. Thermal cycling was performed at 95° C. for 5 min, followed by 40 cycles at 95° C. for 15 s, 60° C. 10s, 72° C. for 30 s. Primers for transcriptional levels of Lcn2, IL-6.

[3] = tested on: Reg3b, Reg3g and Tnf-α genes in the intestine; experiment: Rescue IL-22 therapy: transcriptional levels of intestinal genes by q-PCR; type: in vivo, mouse; settings: WT SBR mice
Method: as §1
RNA Extraction and Reverse Transcription. Total RNA from tissue was extracted according to the manufacturer's instructions (QIAGEN, RNeasy Mini Kit, 74106). Genomic DNA was eliminated from RNA, and total RNA (0.5 μg) was reverse transcribed to cDNA with QuantiTect Reverse Transcription Kit according to the manufacturer's protocol (QIAGEN, 205311, Germantown, Md., USA).
as §2

Th22 cells = experiment: Th22 cell differentiation with and without LCN2, IL-22 ELISA of supernatant; type: cell-based, mouse; settings: rmLCN2 1 ug/mL, 5 days
Method: Naïve CD4^+ T Lymphocytes Isolation and Th22 cells Differentiation. We isolated naïve CD4+ T cells as previously described by Bedoya S K et al.^22 Briefly, splenic tissue was removed from 6-week old C57BL/6J male mice and ground into a single cell suspension under a sterile hood. Red blood cells (RBC) were removed by using ammonium-chloride-potassium (ACK) lysing buffer (Quality Biological, 118-156-101, Gaithersburg, Md., USA) at RT for 3 minutes. Naïve CD4+ T cells were isolated from total splenocyte by magnetic activated cell sorting (MACS) based on positive selection using CD4 (L3T4) MicroBeads (Miltenyi Biotec, 130-117-043, Bergisch-Gladbach, Germany) according to the manufacturer's instructions. The purity of naive CD4+ T cells was more than 97%, as measured by flow cytometry.
For Th22 cell differentiation, CD4+ T cells were stimulated in complete media (RPMI 1640 with 2 mM L-glutamine, 10% FBS, […] 1-ME, 100 U/ml penicillin-streptomycin) with plate-bound anti-CD3ε (Clone 145-2C11, 1 ug/mL, BD; 550275) and soluble anti-CD28 (Clone 37.51, 2 ug/ml, BD, 553295) for 5 days under polarizing condition for Th22 cells (IL-6 20 ng/mL, IL-β 10 ng/mL, TNF-α 10 ng/mL)^23 with and without mouse recombinant (rm) LCN2 (1 ug/mL, R&D, 1857-LC-050). Cell supernatant was collected for IL-22 ELISA analysis (Invitrogen, 88-7422-22) according to the manufacturer's instructions.

[4] = POD 7, compared to PBS-treated group
[5] = jejunum and colon, especially in the colon

In the case of `OCc1c[nH]c2ccccc12` [I3C, indole-3-carbinol], the “weight gain following SBR” value (WT SBR mice) is reported as “increases; also recorded: significant increase”.

With “rmIL-22: recombinant mouse IL-22 (PeproTECH, 210-22), given intraperitoneally in PBS” the body weight lost ([1]; POD 7, 4 μg rmIL-22 ip daily for six days) was 7.5%, the “length of villi in ileum” value [1, 4] was “no difference” and the “length of villi in jejunum” value [1, 4] was “significantly longer”. For the same molecule, the “relative abundance of Bacteroidetes” value [2] was “increased”, the “relative abundance of Firmicutes” value [2] was “increased” and the “relative abundance of Proteobacteria” value [2] was “decreased”. For the same molecule, the Reg3b transcriptional level [3, 5] was “robust increase”, the Reg3g transcriptional level [3, 5] was “robust increase” and the “transcriptional levels of Tnf-α” value ([3]; jejunum, inflammation) was “increased”.

B1: LCN2: mouse recombinant (rm) LCN2 (R&D, 1857-LC-050) added to Th22 polarizing culture (protein, UniProt P11672 21-200, looked up)
Neutrophil …: QDSTQNLIPAPSLLTVPLQPDFRSDQFRGRWYVVGLAGNAVQKKTEGSFTMYSTIYELQENNSYNVTSILVRDQDQGCRYWIRTFVPSSRAGQFTLGNMHRYPQVQSYNVQVATTDYNQFAMVFFRKTSENKQYFKITLYGRTKELSPELKERFTRFAKSLGLKDDNIIFSVPTDQCIDN
For B1, the “levels of IL-22 protein expression from Th22 cells” value (Th22 cells) was “significantly decreased”.
